Key:
[1] = test system: A549 (Human lung cancer cell line); assay: Effect of combination of sulfonamide compound and other antitumor agent (CellTiter-Glo, combination index): A549
[2] = test system: MV-4-11 (Human blood cancer cell line); assay: Effect of combination of sulfonamide compound and other antitumor agent (CellTiter-Glo, combination index): MV-4-11
Method: Each cell line was seeded at 90 L/well to a 96-well culture plate (Thermo Fisher Scientific, Inc.) according to the above tables. The cell-seeded plate was cultured in an incubator set to 37° C. and 500 CO2. On the day following seeding, varying concentrations of the sulfonamide compound and the other antitumor agent were added in combination to the cells. […] The serial dilutions of each compound, or DW was added at 5μL/well to the plate such that each compound and DW, or the sulfonamide compound and the other antitumor agent were combined. […] The plate after the addition was cultured at 37° C. for 3 days under 5% CO2 conditions.
Three days later, CellTiter-Glo(R) 2.0 Reagent (Promega Corporation) was added at 100 μL/well, and the amount of luminescence was measured using a plate reader EnSpire(R) Multimode Plate Reader (PerkinElmer Co., Ltd.).
An average value from 3 wells was calculated as to each drug condition from the obtained data, and cell survival rate normalized against control wells supplemented with the vehicle (DW) was calculated. A Fa (fractional inhibition) value was calculated by subtracting the cell survival rate from 1.

[3] = target: T1, human RNR (histidine tagged human M1 and human M2 proteins) (Homo sapiens, UniProt P23921); assay: Human RNR inhibition effect (dCDP formation from CDP); format: biochemical; settings: 10 μM CDP, 37° C. for 30 minutes, read-out: RNR inhibitory activity IC50
T1 construct: made in house; host or cells: Escherichia coli
T1 sequence (P23921 1-792): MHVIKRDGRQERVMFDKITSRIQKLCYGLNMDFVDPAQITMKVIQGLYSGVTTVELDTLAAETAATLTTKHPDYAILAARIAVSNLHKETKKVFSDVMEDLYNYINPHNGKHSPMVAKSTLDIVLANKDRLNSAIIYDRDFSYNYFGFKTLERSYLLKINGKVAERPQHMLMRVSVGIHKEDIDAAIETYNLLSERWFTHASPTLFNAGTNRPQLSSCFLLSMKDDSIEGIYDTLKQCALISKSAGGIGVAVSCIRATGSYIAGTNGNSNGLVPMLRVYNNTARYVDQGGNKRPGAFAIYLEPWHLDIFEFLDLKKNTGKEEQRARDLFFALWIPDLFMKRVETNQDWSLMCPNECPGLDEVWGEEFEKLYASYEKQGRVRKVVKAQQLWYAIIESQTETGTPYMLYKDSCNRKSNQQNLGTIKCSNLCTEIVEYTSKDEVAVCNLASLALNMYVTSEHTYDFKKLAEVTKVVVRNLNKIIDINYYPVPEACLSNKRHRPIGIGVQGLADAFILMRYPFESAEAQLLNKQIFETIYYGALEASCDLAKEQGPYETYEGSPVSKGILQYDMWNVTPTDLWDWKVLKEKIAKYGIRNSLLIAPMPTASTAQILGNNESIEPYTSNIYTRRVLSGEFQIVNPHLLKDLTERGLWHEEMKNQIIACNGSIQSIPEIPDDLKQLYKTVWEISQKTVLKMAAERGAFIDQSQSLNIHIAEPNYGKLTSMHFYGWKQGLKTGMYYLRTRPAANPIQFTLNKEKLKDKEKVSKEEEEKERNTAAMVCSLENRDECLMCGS
Outline: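 His-tagged human M1 (isoform 1) and N-terminal 59-aa-truncated M2 (isoform 2), E. coli-expressed, Ni-purified, preincubated 20 min with compound (1% DMSO). Reaction with 10 μM CDP, 2 mM ATP, 0.24 mM NADPH, 6 mM DTT, 4 mM Mg acetate, 100 mM KCl, 50 mM HEPES pH 7.2, 30 min at 37° C. dCDP formed quantified by reverse-phase HPLC after heat stop.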

[4] = Example Compound 14 874 nM + Fludarabine nucleoside 5930 nM
[5] = Example Compound 14 1310 nM + Fludarabine nucleoside 8890 nM
[6] = Example Compound 14 1970 nM + Fludarabine nucleoside 13400 nM
[7] = Example Compound 14 2950 nM + Fludarabine nucleoside 20000 nM
[8] = Example Compound 209A 188 nM + Fludarabine nucleoside 5930 nM
[9] = Example Compound 209A 282 nM + Fludarabine nucleoside 8890 nM
[10] = Example Compound 209A 635 nM + Fludarabine nucleoside 20000 nM
[11] = Example Compound 235A 520 nM + Fludarabine nucleoside 8870 nM
[12] = Example Compound 235A 780 nM + Fludarabine nucleoside 13300 nM
[13] = Example Compound 235A 1170 nM + Fludarabine nucleoside 20000 nM
[14] = Example Compound 235A 1750 nM + Fludarabine nucleoside 29900 nM
[15] = Example Compound 5 370 nM + Fludarabine nucleoside 6150 nM
[16] = Example Compound 5 555 nM + Fludarabine nucleoside 9220 nM
[17] = Example Compound 14 778 nM + Fludarabine nucleoside 6150 nM
[18] = Example Compound 14 1170 nM + Fludarabine nucleoside 9250 nM
[19] = Example Compound 235A 304 nM + Fludarabine nucleoside 9220 nM

Nc1nc(F)nc2c1ncn2[C@@H]1O[C@H](CO)[C@@H](O)[C@@H]1O [Fludarabine nucleoside, fludarabine nucleoside]
CI value [1, 4]: 0.549 | Fa value [1, 4]: 0.3063 | CI value [1, 5]: 0.387 | Fa value [1, 5]: 0.7007 | CI value [1, 6]: 0.377 | Fa value [1, 6]: 0.8610 | CI value [1, 7]: 0.537 | Fa value [1, 7]: 0.8736 | CI value [1, 8]: 0.558 | Fa value [1, 8]: 0.3666 | CI value [1, 9]: 0.386 | Fa value [1, 9]: 0.7059 | CI value [1, 10]: 0.515 | Fa value [1, 10]: 0.8634 | CI value [1, 11]: 0.568 | Fa value [1, 11]: 0.4460 | CI value [1, 12]: 0.423 | Fa value [1, 12]: 0.7798 | CI value [1, 13]: 0.504 | Fa value [1, 13]: 0.8525 | CI value [1, 14]: 0.734 | Fa value [1, 14]: 0.8595 | CI value [2, 15]: 0.739 | Fa value [2, 15]: 0.6600 | CI value [2, 16]: 0.293 | Fa value [2, 16]: 0.9981 | CI value [2, 17]: 0.786 | Fa value [2, 17]: 0.5954 | CI value [2, 18]: 0.296 | Fa value [2, 18]: 0.9984 | CI value [2, 19]: 0.320 | Fa value [2, 19]: 0.9988

COc1cc(C#N)ccc1S(=O)(=O)N[C@H](c1n[nH]c(=O)o1)[C@H](C)c1c(F)ccc(C)c1C [Example 342, 4-cyano-N-((1S,2R)-(6-fluoro-2,3-dimethylphenyl)-1-(5-oxo-4,5-dihydro-1,3,4-oxadiazol-2-yl)propyl)-2-methoxybenzenesulfonamide]
IC50 [3]: 90 nM

COc1c(S(=O)(=O)N[C@H](c2n[nH]c(=O)o2)[C@H](C)c2c(F)ccc(C)c2C)ccc(Cl)c1C(C)O (single isomer, unassigned) [Example 208B]
IC50 [3]: 60 nM

Cc1ccc(F)c([C@@H](C)[C@H](NS(=O)(=O)c2cc(C(C)(C)O)c(Cl)cc2C(N)=O)c2n[nH]c(=O)o2)c1C [Example 198, 5-chloro-2-(N-((1S,2R)-2-(6-fluoro-2,3-dimethylphenyl)-1-(5-oxo-4,5-dihydro-1,3,4-oxadiazol-2-yl)propyl)sulfamoyl)-4-(2-hydroxypropan-2-yl)benzamide]
IC50 [3]: 60 nM

COC(=O)c1cc(Cl)c(N)cc1S(=O)(=O)N[C@H](c1n[nH]c(=O)o1)[C@H](C)c1c(F)ccc(C)c1C [Example 272, methyl 4-amino-5-chloro-2-(N-((1S,2R)-2-(6-fluoro-2,3-dimethylphenyl)-1-(5-oxo-4,5-dihydro-1,3,4-oxadiazol-2-yl)propyl)sulfamoyl)benzoate]
IC50 [3]: 660 nM

COc1cc(Cl)ccc1S(=O)(=O)N[C@H](c1n[nH]c(=O)o1)[C@H](C)c1c(F)ccc(-c2cccnc2)c1C [Example 300, 4-chloro-N-((1S,2R)-2-(6-fluoro-2-methyl-3-(pyridin-3-yl)phenyl)-1-(5-oxo-4,5-dihydro-1,3,4-oxadiazol-2-yl)propyl)-2-methoxybenzenesulfonamide]
IC50 [3]: 340 nM

CCN1CCOc2c(S(=O)(=O)N[C@H](c3n[nH]c(=O)o3)[C@H](C)c3c(F)ccc(C)c3C)ccc(Cl)c21 [Example 94, 5-chloro-4-ethyl-N-((1S,2R)-2-(6-fluoro-2,3-dimethylphenyl)-1-(5-oxo4,5-dihydro-1,3,4-oxadiazol-2-yl)propyl)-3,4-dihydro-2H-benzo[b][1,4]oxazine-8-sulfonamide]
IC50 [3]: 110 nM

Cc1ccc(F)c([C@@H](C)[C@H](NS(=O)(=O)c2ncc(Br)cc2C(=O)O)c2n[nH]c(=O)o2)c1C [Example 214, 5-bromo-2-(N-((1S,2R)-2-(6-fluoro-2,3-dimethylphenyl)-1-(5-oxo-4,5-dihydro-1,3,4-oxadiazol-2-yl)propyl)sulfamoyl)nicotinic acid]
IC50 [3]: 990 nM

Cc1ccc(F)c([C@@H](C)[C@H](NS(=O)(=O)c2ccc(Cl)cc2C(N)=O)c2n[nH]c(=O)o2)c1Cl [Example 17, 5-chloro-2-(N-((1S)-2-(2-chloro-6-fluoro-3-methylphenyl)-1-(5-oxo-4,5-dihydro-1,3,4-oxadiazol-2-yl)propyl)sulfamoyl)benzamide]
IC50 [3]: 500 nM

Cc1ccc(F)c([C@@H](C)[C@H](NS(=O)(=O)c2ccc3c(c2)C(C)(O)CCO3)c2n[nH]c(=O)o2)c1C (stereo partly drawn) [Example 195, N-((1S,2R)-2-(6-fluoro-2,3-dimethylphenyl)-1-(5-oxo-4,5-dihydro-1,3,4-oxadiazol-2-yl)propyl)-4-hydroxy-4-methylchroman-6-sulfonamide]
IC50 [3]: 180 nM

Cc1ccc(F)c([C@@H](C)[C@H](NS(=O)(=O)c2ccc(F)c3c2OCCC3(C)O)c2n[nH]c(=O)o2)c1C (single isomer, unassigned) [Example 224A]
IC50 [3]: 90 nM

COC(=O)c1cc(Br)cnc1S(=O)(=O)N[C@H](c1n[nH]c(=O)o1)[C@H](C)c1c(F)ccc(C)c1C [Example 119, methyl 5-bromo-2-(N-((1S,2R)-2-(6-fluoro-2,3-dimethylphenyl)-1-(5-oxo-4,5-dihydro-1,3,4-oxadiazol-2-yl)propyl)sulfamoyl)nicotinate]
IC50 [3]: 450 nM

COc1cc(Cl)cnc1S(=O)(=O)N[C@H](c1n[nH]c(=O)o1)[C@H](C)c1c(F)ccc(C)c1C [Example 112, 5-chloro-N-((1S,2R)-2-(6-fluoro-2,3-dimethylphenyl)-1-(5-oxo-4,5-dihydro-1,3,4-oxadiazol-2-yl)propyl)-3-methoxypyridine-2-sulfonamide]
IC50 [3]: 150 nM

CCc1ccc(S(=O)(=O)N[C@H](c2n[nH]c(=O)o2)[C@H](C)c2c(F)ccc(C)c2C)c(C(N)=O)c1 [Example 18, 5-Ethyl-2-(N-((1S,2R)-2-(6-fluoro-2,3-dimethylphenyl)-1-(5-oxo-4,5-dihydro-1,3,4-oxadiazol-2-yl)propyl)sulfamoyl)benzamide]
IC50 [3]: 130 nM

Cc1ccc(F)c([C@@H](C)[C@H](NS(=O)(=O)c2cc(F)c(Cl)cc2C(=O)O)c2n[nH]c(=O)o2)c1C [Example 217, 5-chloro-4-fluoro-2-(N-((1S,2R)-2-(6-fluoro-2,3-dimethylphenyl)-1-(5-oxo-4,5-dihydro-1,3,4-oxadiazol-2-yl)propyl)sulfamoyl)benzoic acid]
IC50 [3]: 960 nM

CCc1ccc(F)c([C@@H](C)[C@H](NS(=O)(=O)c2ccc(Cl)c(C(C)O)c2OC)c2n[nH]c(=O)o2)c1C (stereo partly drawn) [Example 206A, 4-chloro-N-((1S,2R)-2-(3-ethyl-6-fluoro-2-methylphenyl)-1-(5-oxo-4,5-dihydro-1,3,4-oxadiazol-2-yl)propyl)-3-(1-hydroxyethyl)-2-methoxybenzenesulfonamide]
IC50 [3]: 150 nM
